# Like-named read-outs stand apart in the source and are kept apart here.
# Legend:
# Assay type in all cases: cell-based, human
# [1] = tested on: UACC-257; test: SRB anticancer assay, melanoma
# [2] = tested on: MDA-MB-231/ATCC; test: SRB anticancer assay, breast; set-up: Log10GI50: unit not given here; conditions: for GI50: Homo sapiens, MDA-MB-231, 48 h, 48 h, read-out: GI50
# [3] = tested on: HCT-116; test: SRB anticancer assay, colon; conditions: Homo sapiens, HCT-116, 48 h
# [4] = tested on: SK-MEL-5; test: SRB anticancer assay, melanoma; conditions: Homo sapiens, SK-MEL-5, 48 h
# [5] = tested on: HS 578T; test: SRB anticancer assay, breast; set-up: Log10GI50: unit not given here; conditions: present compounds
# [6] = tested on: OVCAR-3; test: SRB anticancer assay, ovarian; set-up: Log10GI50: unit not given here
# [7] = tested on: OVCAR-4; test: SRB anticancer assay, ovarian; conditions: Homo sapiens, OVCAR-4, 48 h
# [8] = tested on: TK-10; test: SRB anticancer assay, renal; conditions: Homo sapiens, TK-10, 48 h
# [9] = tested on: A549/ATCC; test: SRB anticancer assay, non-small lung; set-up: Log10GI50: unit not given here
# [10] = tested on: MALME-3M; test: SRB anticancer assay, melanoma; set-up: Log10GI50: unit not given here
# [11] = tested on: SF-295; test: SRB anticancer assay, CNS; set-up: Log10GI50: unit not given here
# [12] = tested on: Colon cancer cell lines; test: SRB anticancer assay, panel result
# Protocol: (§1) The compounds were evaluated for anticancer activity against sixty human cancer cells derived from nine cancer types (leukemia cell line, non-small-cell lung cell line, colon cell line, CNS cell line, melanoma cell line, ovarian cell line, prostate cell line, renal cancer cell line and breast cancer cell line) as shown in Table 1. For each compound, dose response curves for each cell line were measured at a minimum of five concentrations at 10 fold dilutions. A protocol of 48 h continuous drug exposure was used and a sulforhodamine B (SRB) protein assay was used to estimate cell viability or growth.
# [13] = tested on: Renal cancer cell lines; test: SRB anticancer assay, panel result
# Protocol: as §1
# [14] = tested on: Non-small cell lung cancer cell lines; test: SRB anticancer assay, panel result
# Protocol: as §1
# [15] = tested on: Prostate cancer cell lines; test: SRB anticancer assay, panel result
# Protocol: as §1
# [16] = tested on: Melanoma cancer cell lines; test: SRB anticancer assay, panel result
# Protocol: as §1
# [17] = tested on: Leukemia cancer cell lines; test: SRB anticancer assay, panel result
# Protocol: as §1
# [18] = tested on: CNS cancer cell lines; test: SRB anticancer assay, panel result
# Protocol: as §1
# [19] = tested on: Breast cancer cell lines; test: SRB anticancer assay, panel result
# Protocol: as §1
# [20] = tested on: Ovarian cancer cell lines; test: SRB anticancer assay, panel result
# Protocol: as §1
# [21] = tested on: HT29; test: SRB anticancer assay, colon; conditions: Homo sapiens, HT-29; HT29, 48 h
# [22] = tested on: SNB-75; test: SRB anticancer assay, CNS; set-up: Log10GI50: unit not given here
# [23] = tested on: EKVX; test: SRB anticancer assay, non-small lung; set-up: Log10GI50: unit not given here
# [24] = tested on: NCI/ADR-RES; test: SRB anticancer assay, ovarian; set-up: Log10GI50: unit not given here; conditions: for Log10GI50: present compounds
smiles,measurement,setting,value
"COc1cc2nc(-c3ccc(-n4cncc4-c4ccc(N)cc4)cc3)sc2c(OC)c1OC [Compound 7h, 4-(1-(4-(5,6,7-Trimethoxybenzo[d]thiazol-2-yl)phenyl)-1H-imidazol-5-yl)benzenamine]",GI50,"[1]; Homo sapiens, UACC-257, 48 h",6.4 µM
same,Log10GI50,"[1]; UACC-257, present compounds",−5.19 log10(M)
same,GI50,[2]; MDA-MB-231/ATCC (row head MDA-MB-),3.65 µM
same,GI50,[2]; row head printed 231/ATCC (second line of MDA-MB-231/ATCC),5.36 µM
same,Log10GI50,"[2]; MDA-MB-231/ATCC, present compounds",−5.44
same,GI50,[3],3.81 µM
same,GI50,[4],2.74 µM
same,Log10GI50,[5],−5.27
same,GI50,"[6]; Homo sapiens, OVCAR-3, 48 h",2.73 µM
same,Log10GI50,"[6]; OVCAR-3, present compounds",−5.56
same,GI50,[7],3.6 µM
same,GI50,[8],4.93 µM
same,GI50,"[9]; Homo sapiens, 48 h",3.14 µM
same,Log10GI50,[9]; present compounds,−5.50
same,GI50,"[10]; Homo sapiens, Malme-3M, 48 h",0.71 µM
same,Log10GI50,"[10]; MALME-3M, present compounds",−6.15
same,GI50,"[11]; Homo sapiens, SF-295, 48 h",1.53 µM
same,Log10GI50,"[11]; SF-295, present compounds",−5.82
same,mean graph midpoint value (MG_MID) of log10 TGI,"[12]; Colon panel, total inhibition of net cell growth",>−4.0
same,LC50,"[12]; Homo sapiens, Colon panel, 50% net cell death, read-out: mean graph midpoint value (MG_MID) of Log10 LC50 (converted)",> 100 µM
same,GI50,"[12]; Homo sapiens, Colon panel, read-out: mean graph midpoint value (MG_MID) of Log10 GI50 (converted)",3.31 µM
same,GI50,"[12]; Homo sapiens, seven colon cancer cell lines, exposure at least 48 h, read-out: GI50, range over the panel",2.79 to 3.81 µM
same,CC50,"[13]; Homo sapiens, Renal panel, 50% net cell death, read-out: mean graph midpoint value (MG_MID) of Log10 LC50 (converted)",95.5 µM
same,GI50,"[13]; Homo sapiens, Renal panel, read-out: mean graph midpoint value (MG_MID) of Log10 GI50 (converted)",3.89 µM
same,GI50,"[13]; Homo sapiens, eight renal cancer cell lines, exposure at least 48 h, read-out: GI50, range over the panel",1.41 to 8.95 µM
same,mean graph midpoint value (MG_MID) of log10 TGI,"[13]; Renal panel, total inhibition of net cell growth",−4.38
same,LC50,"[14]; Homo sapiens, Non-small cell lung panel, 50% net cell death, read-out: mean graph midpoint value (MG_MID) of Log10 LC50 (converted)",93.3 µM
same,GI50,"[14]; Homo sapiens, Non-small cell lung panel, read-out: mean graph midpoint value (MG_MID) of Log10 GI50 (converted)",2.57 µM
same,GI50,"[14]; Homo sapiens, nine Non-small cell lung cancer cell lines, exposure at least 48 h, read-out: GI50, range over the panel",0.446 to 5.13 µM
same,mean graph midpoint value (MG_MID) of log10 TGI,"[14]; Non-small cell lung panel, total inhibition of net cell growth",−4.54
same,LC50,"[15]; Homo sapiens, Prostate panel, 50% net cell death, read-out: mean graph midpoint value (MG_MID) of Log10 LC50 (converted)",> 100 µM
same,GI50,"[15]; Homo sapiens, Prostate panel, read-out: mean graph midpoint value (MG_MID) of Log10 GI50 (converted)",4.68 µM
same,GI50,"[15]; Homo sapiens, two prostate cancer cell lines (PC-3, DU-145), exposure at least 48 h, read-out: GI50, range over the panel",3.02 to 7.25 µM
same,mean graph midpoint value (MG_MID) of log10 TGI,"[15]; Prostate panel, total inhibition of net cell growth",−4.15
same,LC50,"[16]; Homo sapiens, Melanoma panel, 50% net cell death, read-out: mean graph midpoint value (MG_MID) of Log10 LC50 (converted)",97.7 µM
same,GI50,"[16]; Homo sapiens, Melanoma panel, read-out: mean graph midpoint value (MG_MID) of Log10 GI50 (converted)",4.79 µM
same,GI50,"[16]; Homo sapiens, nine melanoma cancer cell lines, exposure at least 48 h, read-out: GI50, range over the panel",0.71 to 6.4 µM
same,mean graph midpoint value (MG_MID) of log10 TGI,"[16]; Melanoma panel, total inhibition of net cell growth",−4.13
same,LC50,"[17]; Homo sapiens, Leukemia panel, 50% net cell death, read-out: mean graph midpoint value (MG_MID) of Log10 LC50 (converted)",> 100 µM
same,GI50,"[17]; Homo sapiens, Leukemia panel, read-out: mean graph midpoint value (MG_MID) of Log10 GI50 (converted)",1.2 µM
same,GI50,"[17]; Homo sapiens, six leukemia cancer cell lines, exposure at least 48 h, read-out: GI50, range over the panel",0.989 to 1.4 µM
same,mean graph midpoint value (MG_MID) of log10 TGI,"[17]; Leukemia panel, total inhibition of net cell growth",>−4.0
same,mean graph midpoint value (MG_MID) of log10 TGI,"[18]; CNS panel, total inhibition of net cell growth",−4.51
same,CC50,"[18]; Homo sapiens, CNS panel, 50% net cell death, read-out: mean graph midpoint value (MG_MID) of Log10 LC50 (converted)",66.1 µM
same,GI50,"[18]; Homo sapiens, CNS panel, read-out: mean graph midpoint value (MG_MID) of Log10 GI50 (converted)",5.75 µM
same,GI50,"[18]; Homo sapiens, six CNS cancer cell lines, exposure at least 48 h, read-out: GI50, range over the panel",1.53 to 12.3 µM
same,mean graph midpoint value (MG_MID) of log10 TGI,"[19]; Breast panel, total inhibition of net cell growth",−4.47
same,CC50,"[19]; Homo sapiens, Breast panel, 50% net cell death, read-out: mean graph midpoint value (MG_MID) of Log10 LC50 (converted)",> 100 µM
same,GI50,"[19]; Homo sapiens, Breast panel, read-out: mean graph midpoint value (MG_MID) of Log10 GI50 (converted)",2.82 µM
same,GI50,"[19]; Homo sapiens, six breast cancer cell lines, exposure at least 48 h, read-out: GI50, range over the panel",1.59 to 5.36 µM
same,LC50,"[20]; Homo sapiens, Ovarian panel, 50% net cell death, read-out: mean graph midpoint value (MG_MID) of Log10 LC50 (converted)",89.1 µM
same,GI50,"[20]; Homo sapiens, Ovarian panel, read-out: mean graph midpoint value (MG_MID) of Log10 GI50 (converted)",5.01 µM
same,GI50,"[20]; Homo sapiens, seven ovarian cancer cell lines, exposure at least 48 h, read-out: GI50, range over the panel",1.61 to 34.3 µM
same,mean graph midpoint value (MG_MID) of log10 TGI,"[20]; Ovarian panel, total inhibition of net cell growth",−4.56
same,GI50,[21],2.79 µM
same,GI50,"[22]; Homo sapiens, SNB-75, 48 h",5.94 µM
same,Log10GI50,"[22]; SNB-75, present compounds",−5.23
same,GI50,"[23]; Homo sapiens, 48 h",2.49 µM
same,Log10GI50,[23]; present compounds,−5.60
same,GI50,"[24]; Homo sapiens, NCI/ADR-RES, 48 h",1.61 µM
same,Log10GI50,[24]; NCI/ADR-RES (row head NCI/ADR-),−5.79
same,Log10GI50,[24]; listed as head printed RES (second line of NCI/ADR-RES),−4.93

# Source: patent publication US9187467B2, “2-phenyl benzothiazole linked imidazole compounds as potential anticancer agents and process for the preparation thereof” (Council of Scientific and Industrial Research, priority 2012, dated 2015)
